The numbers were not newly measured in patent publication US20240023548A1, “TAU-FLUVALINATE COMPOSITIONS” (Adama Makhteshim Ltd., priority 2020, published 2024), which cites them from elsewhere.

For `CC(C)[C@@H](Nc1ccc(C(F)(F)F)cc1Cl)C(=O)OC(C#N)c1cccc(Oc2ccccc2)c1` (some centres unmarked) [Tau-fluvalinate, tau-fluvalinate], the “Solubility in organic solvents” value (organic solvents) is recorded as “soluble in organic solvents”. Further, for the setting “water”, the Solubility in water result was “low solubility in water”.
